US10377783B2, “Methods and compounds for enhancing contrast in magnetic resonance imaging (MRI)” (priority 2015, dated 2019)

Experiments:
[1] = tested on: male rat (Sprague Dawley Crl:SD); test: In vivo MRI imaging of 2 and 6, T1-weighted scans; settings: for T1-weighted MRI signal intensity, bladder: baseline (−10 min) 5085; for T1-weighted MRI signal intensity, lean muscle: baseline (−10 min) 5640; for T1-weighted MRI signal intensity, liver: baseline (−10 min) 7276; for T1-weighted MRI signal intensity, renal medulla: baseline (−10 min) 7725; for T1-weighted MRI signal intensity, renal cortex: baseline (−10 min) 8005; for T1-weighted MRI signal intensity, fat: baseline (−10 min) 14509
Method: (§1) Compound 1 (aq., 12.5 mM) was injected intravenously into 2 male rats (Sprague Dawley Crl:SD, 312-338 g) at a dosage of 0.02 mmol/kg following anaesthesia with 5% isoflurane. Compound 2 (aq., 6.25 mM) was injected intravenously into 1 male rat (Sprague Dawley Crl:SD, 349 g) at a dosage of 0.01 mmol/kg following anaesthesia with 5% isoflurane. Compound 6 (aq., 6.25 mM) was injected intravenously into 1 male rat (Sprague Dawley Crl:SD, 341 g) at a dosage of 0.01 mmol/kg following anaesthesia with 5% isoflurane. Anesthesia was maintained at 2-2.5% isoflurane through a nose cone for the duration of the scans. Fast-spin-echo images were collected for 45 mins. immediately post-injection. For compound 1, the DT1-weighted RARE (Rapid Acquisition Relaxation Enhancement) scans were acquired with an echo time of 10 ms, and a repetition time=respiratory cycle duration (˜1100 ms). Both T1- and T2-weighted scans were collected on compounds 2 and 6.
(§2) The in vivo contrast potential of compounds 1, 2 and 6 were studied via the collection of fast-spin-echo images for 30-45 minutes immediately following injection of an aqueous solution of each complex. The dosage chosen for 1 was 0.02 mmol/kg (c=[…]) while the dosage chosen for 2 and 6 was 0.01 mmol/kg (c=6.25 mM). Predominantly T1-weighted scans with some T2-weighting were performed on two rats injected with 1.
(§3) Both T1- and T2-weighted scans were performed on two rats injected with 2 and its dimeric analogue 6.

[2] = tested on: male rat (Sprague Dawley Crl:SD); test: In vivo MRI imaging of 2 and 6, T2-weighted scans; settings: for T2-weighted MRI signal intensity, liver: baseline (−10 min) 965; for T2-weighted MRI signal intensity, lean muscle: baseline (−10 min) 2673; for T2-weighted MRI signal intensity, renal cortex: baseline (−10 min) 4759; for T2-weighted MRI signal intensity, renal medulla: baseline (−10 min) 6454; for T2-weighted MRI signal intensity, bladder: baseline (−10 min) 12921; for T2-weighted MRI signal intensity, fat: baseline (−10 min) 14834
Method: as §1, §2, §3

[3] = 1 min after injection of 2, 0.01 mmol/kg iv
[4] = 15 min after injection of 2, 0.01 mmol/kg iv
[5] = 30 min after injection of 2, 0.01 mmol/kg iv
[6] = 45 min after injection of 2, 0.01 mmol/kg iv
[7] = injection of 2, 0.01 mmol/kg iv, first 45 min
[8] = 8 min after injection of 2, 0.01 mmol/kg iv
[9] = 22 min after injection of 2, 0.01 mmol/kg iv
[10] = 37 min after injection of 2, 0.01 mmol/kg iv
[11] = injection of 2, 0.01 mmol/kg iv, first 40 min

CC1=NCCOCCOCCN=C(C)c2cccc1n2.O.O.[Cl-].[Cl-].[Mn+2] [Compound 2, [MnL2Cl2].2H2O]
excretion (summary) ([1]; 0.01 mmol/kg iv): rapid excretion
T1-weighted MRI signal intensity, bladder [1, 3]: 5155 arbitrary units of voxel intensity
T1-weighted MRI signal intensity, lean muscle [1, 3]: 5841 arbitrary units of voxel intensity
T1-weighted MRI signal intensity, liver [1, 3]: 7568 arbitrary units of voxel intensity
T1-weighted MRI signal intensity, renal medulla [1, 3]: 9169 arbitrary units of voxel intensity
T1-weighted MRI signal intensity, renal cortex [1, 3]: 9368 arbitrary units of voxel intensity
T1-weighted MRI signal intensity, fat [1, 3]: 15671 arbitrary units of voxel intensity
T1-weighted MRI signal intensity, bladder [1, 4]: 16182 arbitrary units of voxel intensity
T1-weighted MRI signal intensity, lean muscle [1, 4]: 5696 arbitrary units of voxel intensity
T1-weighted MRI signal intensity, liver [1, 4]: 7385 arbitrary units of voxel intensity
T1-weighted MRI signal intensity, renal medulla [1, 4]: 8472 arbitrary units of voxel intensity
T1-weighted MRI signal intensity, renal cortex [1, 4]: 10144 arbitrary units of voxel intensity
T1-weighted MRI signal intensity, fat [1, 4]: 15845 arbitrary units of voxel intensity
T1-weighted MRI signal intensity, bladder [1, 5]: 11996 arbitrary units of voxel intensity
T1-weighted MRI signal intensity, lean muscle [1, 5]: 5569 arbitrary units of voxel intensity
T1-weighted MRI signal intensity, liver [1, 5]: 7812 arbitrary units of voxel intensity
T1-weighted MRI signal intensity, renal medulla [1, 5]: 7969 arbitrary units of voxel intensity
T1-weighted MRI signal intensity, renal cortex [1, 5]: 10702 arbitrary units of voxel intensity
T1-weighted MRI signal intensity, fat [1, 5]: 15745 arbitrary units of voxel intensity
T1-weighted MRI signal intensity, bladder [1, 6]: 13104 arbitrary units of voxel intensity
T1-weighted MRI signal intensity, lean muscle [1, 6]: 5574 arbitrary units of voxel intensity
T1-weighted MRI signal intensity, liver [1, 6]: 7683 arbitrary units of voxel intensity
T1-weighted MRI signal intensity, renal medulla [1, 6]: 8615 arbitrary units of voxel intensity
T1-weighted MRI signal intensity, renal cortex [1, 6]: 11485 arbitrary units of voxel intensity
T1-weighted MRI signal intensity, fat [1, 6]: 15860 arbitrary units of voxel intensity
Max. intensity change, T1-weighted, bladder [1, 7]: 218%
Max. intensity change, T1-weighted, fat [1, 7]: 9%
Max. intensity change, T1-weighted, lean muscle [1, 7]: 3%
Max. intensity change, T1-weighted, liver [1, 7]: 7%
Max. intensity change, T1-weighted, renal cortex [1, 7]: 43%
Max. intensity change, T1-weighted, renal medulla [1, 7]: 19%
effect on T1-weighted signal intensity ([1]; renal cortex, liver and lean muscle, 0.01 mmol/kg iv): causes an enhancement in the renal cortex and has negligible effect on liver and lean muscle tissue
T2-weighted MRI signal intensity, liver [2, 8]: 788 arbitrary units of voxel intensity
T2-weighted MRI signal intensity, lean muscle [2, 8]: 2386 arbitrary units of voxel intensity
T2-weighted MRI signal intensity, renal cortex [2, 8]: 3367 arbitrary units of voxel intensity
T2-weighted MRI signal intensity, renal medulla [2, 8]: 5342 arbitrary units of voxel intensity
T2-weighted MRI signal intensity, bladder [2, 8]: 7977 arbitrary units of voxel intensity
T2-weighted MRI signal intensity, fat [2, 8]: 14550 arbitrary units of voxel intensity
T2-weighted MRI signal intensity, liver [2, 9]: 577 arbitrary units of voxel intensity
T2-weighted MRI signal intensity, lean muscle [2, 9]: 2451 arbitrary units of voxel intensity
T2-weighted MRI signal intensity, renal cortex [2, 9]: 3307 arbitrary units of voxel intensity
T2-weighted MRI signal intensity, renal medulla [2, 9]: 5306 arbitrary units of voxel intensity
T2-weighted MRI signal intensity, bladder [2, 9]: 667 arbitrary units of voxel intensity
T2-weighted MRI signal intensity, fat [2, 9]: 12923 arbitrary units of voxel intensity
T2-weighted MRI signal intensity, liver [2, 10]: 400 arbitrary units of voxel intensity
T2-weighted MRI signal intensity, lean muscle [2, 10]: 2377 arbitrary units of voxel intensity
T2-weighted MRI signal intensity, renal cortex [2, 10]: 3034 arbitrary units of voxel intensity
T2-weighted MRI signal intensity, renal medulla [2, 10]: 4215 arbitrary units of voxel intensity
T2-weighted MRI signal intensity, bladder [2, 10]: 512 arbitrary units of voxel intensity
T2-weighted MRI signal intensity, fat [2, 10]: 13440 arbitrary units of voxel intensity
Max. intensity change, T2-weighted, bladder [2, 11]: −96%
Max. intensity change, T2-weighted, fat [2, 11]: −13%
Max. intensity change, T2-weighted, lean muscle [2, 11]: −11%
Max. intensity change, T2-weighted, liver [2, 11]: −59%
Max. intensity change, T2-weighted, renal cortex [2, 11]: −36%
Max. intensity change, T2-weighted, renal medulla [2, 11]: −35%
